Results reported in ChEMBL document CHEMBL1138375, “SAR studies of 6-(arylamino)-4,4-disubstituted-1-methyl-1,4-dihydro-benzo[d][1,3]oxazin-2-ones as progesterone receptor antagonists” (Bioorg Med Chem Lett, 2007).
pIC50: −log10 of the molar value.

Molecular target: T1, Progesterone receptor (Homo sapiens, UniProt P06401)
T1 sequence (P06401 whole entry): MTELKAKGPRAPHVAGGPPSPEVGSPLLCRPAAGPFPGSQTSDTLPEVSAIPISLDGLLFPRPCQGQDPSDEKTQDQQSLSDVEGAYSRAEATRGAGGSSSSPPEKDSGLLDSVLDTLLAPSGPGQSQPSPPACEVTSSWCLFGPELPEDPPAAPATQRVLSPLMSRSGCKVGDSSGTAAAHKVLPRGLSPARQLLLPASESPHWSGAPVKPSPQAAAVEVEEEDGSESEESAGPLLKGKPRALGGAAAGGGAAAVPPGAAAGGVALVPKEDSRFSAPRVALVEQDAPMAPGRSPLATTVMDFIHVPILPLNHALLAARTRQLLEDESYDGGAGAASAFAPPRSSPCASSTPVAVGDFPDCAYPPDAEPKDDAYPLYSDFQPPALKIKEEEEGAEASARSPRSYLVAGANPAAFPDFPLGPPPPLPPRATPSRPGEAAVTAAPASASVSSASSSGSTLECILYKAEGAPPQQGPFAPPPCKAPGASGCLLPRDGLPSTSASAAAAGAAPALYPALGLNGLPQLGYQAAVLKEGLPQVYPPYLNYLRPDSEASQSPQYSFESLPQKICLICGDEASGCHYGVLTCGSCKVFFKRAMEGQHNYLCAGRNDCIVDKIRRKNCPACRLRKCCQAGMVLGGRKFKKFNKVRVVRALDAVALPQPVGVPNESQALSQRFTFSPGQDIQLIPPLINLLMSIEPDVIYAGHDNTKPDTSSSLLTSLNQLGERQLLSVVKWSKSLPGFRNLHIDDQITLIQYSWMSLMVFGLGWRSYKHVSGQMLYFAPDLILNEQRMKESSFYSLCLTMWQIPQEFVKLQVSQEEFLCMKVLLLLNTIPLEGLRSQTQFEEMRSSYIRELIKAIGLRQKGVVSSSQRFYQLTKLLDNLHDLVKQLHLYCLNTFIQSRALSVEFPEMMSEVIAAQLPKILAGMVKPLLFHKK
Assay: Antagonist activity at progesterone receptor expressed in T47D cells assessed as inhibition of progesterone-induced alkaline phosphatase activity
Type: functional, cell-based

pIC50 | Structure (SMILES)
8.09 | CCC1(CC)OC(=O)N(C)c2ccc(Nc3cc(Cl)cc(Cl)c3)cc21
8.04 | CCC1(CC)OC(=O)N(C)c2ccc(Nc3ccc(F)c(C#N)c3)cc21
7.37 | CCC1(CC)OC(=S)N(C)c2ccc(Nc3ccc(F)c(F)c3)cc21
7.00 | CN1C(=O)OC(C)(C)c2cc(Nc3ccc(Cl)c(Cl)c3)ccc21
7.56 | CCC1(CC)OC(=O)N(C)c2ccc(Nc3ccc(F)c(F)c3)cc21
7.49 | CCC1(c2cccs2)OC(=O)N(C)c2ccc(Nc3cccc(Cl)c3)cc21 (centres undefined)
5.52 | CC1(C)OC(=O)N(Cc2ccccc2)c2ccc(Nc3ccc(Br)cc3)cc21
7.25 | CN1C(=O)OC(C)(C)c2cc(Nc3cccc(Cl)c3Cl)ccc21
6.69 | CC1(C)OC(=O)Nc2ccc(Nc3cccc(Cl)c3Cl)cc21
8.08 | CCC1(CC)OC(=O)N(C)c2ccc(Nc3cc(F)cc([N+](=O)[O-])c3)cc21
7.88 | CCC1(CC)OC(=O)N(C)c2ccc(Nc3cccc(Cl)c3)cc21
5.52 | CC1(C)OC(=O)N(c2ccccc2)c2ccc(Nc3ccc(Br)cc3)cc21
6.00 | CCN1C(=O)OC(C)(C)c2cc(Nc3ccc(Br)cc3)ccc21
7.53 | CCC1(CC)OC(=O)N(C)c2ccc(Nc3ccc(Cl)c(Cl)c3)cc21
7.52 | CN1C(=S)OC(C)(C)c2cc(Nc3ccc(Br)cc3)ccc21
6.00 | CC(C)N1C(=O)OC(C)(C)c2cc(Nc3ccc(Br)cc3)ccc21
8.05 | CCC1(CC)OC(=O)N(C)c2ccc(Nc3ccc(F)c(Cl)c3)cc21
6.00 | CN1C(=O)OC(c2ccc(Cl)cc2)(c2ccc(Cl)cc2)c2cc(Nc3cccc(Cl)c3)ccc21
7.18 | CCC1(c2ccccc2)OC(=O)N(C)c2ccc(Nc3cccc(Cl)c3)cc21 (centres undefined)
7.43 | CCC1(CC)OC(=O)N(C)c2ccc(Nc3ccc(C#N)c(F)c3)cc21
7.14 | CCC1(c2ccc(Cl)cc2)OC(=O)N(C)c2ccc(Nc3cccc(Cl)c3)cc21 (centres undefined)
7.26 | CN1C(=O)OC(C)(C)c2cc(Nc3ccc(Br)cc3)ccc21
7.84 | CCC1(CC)OC(=O)N(C)c2ccc(Nc3cc(F)cc(C#N)c3)cc21
8.30 | CCC1(CC)OC(=O)N(C)c2ccc(Nc3cccc(Cl)c3Cl)cc21
